One test deals with GGT. Put plainly: Enzymatic reaction with purified GGT, LC-MS analysis of products. It is filed as biochemical. How it is done:
(§1) Next, enzymatic reactions were carried out under the following conditions using the three compounds synthesized and purified enzymes.
(§2) Final compound concentration: 100 μM
(§3) Final enzyme concentration: 4 nM (β-Gal), 8.5 μg/mL (DPP-IV), 10 U/mL (GGT)
(§4) Reaction temperature: 37° C.
(§5) (2) Enzymatic Reaction Using DPP-IV and GGT
(§6) Instrument: 1260 Infinity (manufactured by Agilent Technologies, Inc.)
(§7) Column: Poroshell 120, 4.6×100 mm (manufactured by Agilent Technologies, Inc.)
(§8) Mobile phase A: water (0.01M ammonium formate)
(§9) Mobile phase B: 80% acetonitrile/water (0.01M ammonium formate)
Next, enzymatic reactions were carried out under the following conditions using the benzyl-position leaving group-converted derivatives synthesized and purified enzyme.
Final enzyme concentration: 10 U/mL (GGT)
Enzymatic reaction using GGT

Test [1] deals with SHIN3 cells (high GGT expression) and H226 cells (low GGT expression). The experiment in a line: CCK-8 assay, cells with high and low GGT expression. It is filed as cell-based, human. The method, then: (§10) Next, it was verified whether compounds 1-3 can change the cell viability by functioning as a prodrug when administered to cells with high and low enzyme expression. The efficacy studies were carried out by using a general colorimetric method called CCK-8 assay (method for quantifying the dehydrogenase activity inside living cells through reduction of colorless WST-8 to orange formazan) to quantify the number of living cells. The CCK-8 assay evaluation method is described below.
(§11) The B-galactosidase-activated prodrug was evaluated using HEK/lac Z cells (cells derived from human kidney cells, high β-Gal expression) and HEK293 cells (cells derived from human kidney cells, low β-Gal expression). The DPP-IV-activated prodrug was evaluated using H226 cells (human lung squamous cell carcinoma cells, high DPP-IV expression) and H460 cells (human non-small cell epithelial lung cancer cells, low DPP-IV expression). The GGT-activated prodrug was evaluated using SHIN3 cells (human ovarian cancer cells, high GGT expression) and H226 cells (human lung squamous cell carcinoma cells, low GGT expression).
Each type of cell was seeded in 96-well plates (cell density: 1.0×10^4/well) and incubated overnight. The medium was exchanged for fresh medium, and the synthesized derivatives were added (final concentration 1-50 μM, 0.5% DMSO, n=3). After culturing the cells for another 24 hours, a Cell Counting Kit-8 (10 μL/well, manufactured by […]) was added. After 2.5 hours, the 450 nm absorbance was measured by a plate reader, and the number of viable cells was quantified.
Next, benzyl-position leaving group-converted derivatives were subjected to the CCK-8 assay described above.

The target in another test is β-Gal (Escherichia coli, UniProt P00722). The experiment in a line: Enzymatic reaction with purified β-galactosidase, LC-MS analysis of products. The format is biochemical. The note with it: 100 μM compound, 4 nM β-Gal, 37° C.; reaction product 2-hydroxybenzyl alcohol; FIG. 4. How it is done: as §1, §2, §3, §4
Sequence of β-Gal (P00722 2-1024): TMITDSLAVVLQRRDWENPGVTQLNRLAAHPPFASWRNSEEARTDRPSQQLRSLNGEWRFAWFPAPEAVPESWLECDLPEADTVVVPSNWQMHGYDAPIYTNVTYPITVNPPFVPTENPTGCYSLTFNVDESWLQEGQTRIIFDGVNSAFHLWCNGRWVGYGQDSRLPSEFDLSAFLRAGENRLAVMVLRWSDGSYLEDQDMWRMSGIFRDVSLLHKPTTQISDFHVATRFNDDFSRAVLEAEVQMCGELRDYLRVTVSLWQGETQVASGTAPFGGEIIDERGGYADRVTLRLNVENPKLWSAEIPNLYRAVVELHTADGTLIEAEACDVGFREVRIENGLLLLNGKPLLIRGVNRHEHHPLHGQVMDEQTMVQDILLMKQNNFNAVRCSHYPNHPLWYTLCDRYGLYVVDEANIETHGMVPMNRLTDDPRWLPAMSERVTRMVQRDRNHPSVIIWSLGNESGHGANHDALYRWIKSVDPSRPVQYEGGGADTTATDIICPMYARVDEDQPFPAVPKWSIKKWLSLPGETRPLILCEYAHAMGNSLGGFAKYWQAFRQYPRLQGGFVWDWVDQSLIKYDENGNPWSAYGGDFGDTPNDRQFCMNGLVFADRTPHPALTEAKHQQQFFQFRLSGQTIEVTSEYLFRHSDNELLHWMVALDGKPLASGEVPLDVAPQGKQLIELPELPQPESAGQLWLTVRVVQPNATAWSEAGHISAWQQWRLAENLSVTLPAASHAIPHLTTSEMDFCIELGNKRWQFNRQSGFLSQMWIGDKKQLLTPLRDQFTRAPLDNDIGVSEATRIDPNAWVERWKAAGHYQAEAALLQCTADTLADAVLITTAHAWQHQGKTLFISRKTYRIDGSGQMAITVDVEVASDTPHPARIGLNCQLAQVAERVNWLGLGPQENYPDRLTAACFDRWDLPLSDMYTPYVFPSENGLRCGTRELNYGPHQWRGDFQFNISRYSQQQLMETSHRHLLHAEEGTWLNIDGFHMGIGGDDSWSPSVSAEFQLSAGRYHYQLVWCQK
(1) Enzymatic Reaction Using β-Galactosidase
Instrument: ACQUITY UPLC (manufactured by Waters Corporation)
as §7, §8, §9

For the next test, the system named is HEK/lac Z cells. The experiment in a line: CCK-8 assay, cells with high β-Gal expression. It is filed as cell-based, human. The note with it: FIG. 5. How it is done: as §10, §11
(§12) Each type of cell was seeded in 96-well plates (cell density: 1.0×10^4/well) and incubated overnight. […] After 2.5 hours, the 450 nm absorbance was measured by a plate reader, and the number of viable cells was quantified.
On the technique in general: Tetrazolium dyes change colour on reduction, which living cells bring about.

In another test the test system is HEK293 cells. The experiment in a line: CCK-8 assay, cells with low β-Gal expression. It is filed as cell-based, human. The note with it: 50 μM, after 24 hours, FIG. 5. How it is done: as §10, §11, §12
Another test deals with DPP-IV (Homo sapiens, UniProt P27487). Put plainly: Enzymatic reaction with purified DPP-IV, LC-MS analysis of products. It is filed as biochemical. The note with it: 100 μM compound, 8.5 μg/mL DPP-IV, 37° C.; reaction product 2-aminobenzyl alcohol; FIG. 4. The method, then: as §1, §2, §3, §4, §5, §6, §7, §8, §9
Sequence of DPP-IV (P27487 whole entry, species assumed): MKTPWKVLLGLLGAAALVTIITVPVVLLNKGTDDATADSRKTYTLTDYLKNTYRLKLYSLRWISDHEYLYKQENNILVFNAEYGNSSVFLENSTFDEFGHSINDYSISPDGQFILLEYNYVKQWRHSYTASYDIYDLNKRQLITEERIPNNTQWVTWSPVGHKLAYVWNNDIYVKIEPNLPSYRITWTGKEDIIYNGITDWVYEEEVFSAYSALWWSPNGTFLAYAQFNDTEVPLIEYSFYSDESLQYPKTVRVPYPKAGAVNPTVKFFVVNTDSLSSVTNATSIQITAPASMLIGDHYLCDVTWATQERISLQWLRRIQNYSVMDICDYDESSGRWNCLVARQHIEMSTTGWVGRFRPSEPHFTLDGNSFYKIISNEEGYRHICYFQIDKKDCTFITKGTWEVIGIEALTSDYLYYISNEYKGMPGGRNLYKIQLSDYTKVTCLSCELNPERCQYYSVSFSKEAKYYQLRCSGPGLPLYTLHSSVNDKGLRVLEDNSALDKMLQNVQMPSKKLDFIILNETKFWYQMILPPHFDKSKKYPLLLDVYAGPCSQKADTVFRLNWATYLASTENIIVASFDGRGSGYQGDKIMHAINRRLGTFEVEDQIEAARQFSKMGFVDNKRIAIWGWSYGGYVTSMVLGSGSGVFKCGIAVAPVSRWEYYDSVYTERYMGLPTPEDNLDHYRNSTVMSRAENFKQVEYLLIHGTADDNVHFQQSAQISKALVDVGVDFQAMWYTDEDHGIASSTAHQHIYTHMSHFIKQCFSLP
Test [2] has as its system H226 cells (high DPP-IV expression) and H460 cells (low DPP-IV expression). Put plainly: CCK-8 assay, cells with high and low DPP-IV expression. The format is cell-based, human. The note with it: H226 (high DPP-IV) vs H460 (low DPP-IV), 1-50 μM, 24 hours; FIG. 6. How it is done:
as §10, §11, §12

The subject of test [3] is SHIN3 cells and H226 cells. Put plainly: Cell death observation by fluorescence imaging over time with EthD-1 (protocol 1). The format is cell-based, human. The note with it: SHIN3 vs H226 cultured separately, imaging over 24 hr; FIG. 8. The text has this:
Since changing the types of cells and standardizing the medium to RPMI-1640 made coculture possible, the aim then became to observe cell death under coculture conditions and to construct a quantitative method. It was decided to conduct these studies using compound 3 for GGT (gGlu-FMA) based on the results obtained thus far, and the possibility of visually observing cell death by observation of fluorescence using one type of cell was first explored as an initial study (FIG. 8).
Scan mode: xyzt, x=512, y=512, z=4, t=24. Scale bar: 50 μm.

The subject of test [4] is cocultured SHIN3 cells and H226 cells. The experiment in a line: Cell death observation under coculture conditions, time-lapse fluorescence imaging with EthD-1 (protocol 2). The note with it: coculture of high and low GGT expression cells, 24 hr time-lapse imaging; FIG. 9. The format is cell-based, human.
Test [5] concerns SHIN3 cells and H226 cells. The experiment in a line: Efficacy evaluation by flow cytometry (protocol 3). It is filed as cell-based, human. The note with it: 25 μM, 24-hr incubation; compared with +100 μM GGsTop and 0.25% DMSO control; FIG. 10. How it is done: On the other hand, since it is impossible to quantitatively discuss the extent to which the survival rates of high-expression/low-expression cells have changed, the present inventors studied whether this could be evaluated using flow cytometry (FIG. 10).
(Top) 25 μM model compound, (middle) 25 μM model compound+100 μM GGsTop, (bottom) 0.25% DMSO control. Analysis was carried out after 24-hr incubation.
(In flow cytometry, cells or beads pass a laser one at a time.)

Another test concerns SHIN3 cells. Put plainly: Administration study in peritoneal dissemination model mice. The format is in vivo. The note with it: 5 mg/kg intraperitoneally each day from day 7, imaged day 21 with gGlu-HMRG, vs PBS; FIG. 17. How it is done:
Peritoneal dissemination model mice were created by intraperitoneal administration of SHIN3 cells (cancer cell line derived from ovarian cancer, high GGT activity) suspended in PBS. From day seven after cell dissemination, 5 mg/kg of gGlu-FMA or PBS (control) was administered intraperitoneally each day. On day 21 after cell dissemination, gGlu-HMRG was administered intraperitoneally, and the mice were sacrificed ten minutes later. After laparotomy, fluorescence images were acquired by a Maestro in vivo imaging device (FIG. 16).

Structures are written as SMILES.

Regarding `COP(=O)(CCC(N)C(=O)O)Oc1cccc(CC(=O)O)c1` (stereo not shown) [GGsTop, reference compound], the “effect of inhibitor on the GGT enzymatic reaction of the model compound” value in the test with GGT (inhibitor added at 100 μM) is given as “inhibited”. Further, the “effect of GGT inhibitor on survival rate of cells treated with the GGT prodrug” value in test [1] (CCK-8, FIG. 7) is “completely restored the survival rate”.
Turning to `OCC1O[C@@H](Oc2ccccc2CF)C(O)C(O)[C@H]1O` (stereo partly shown) [compound 1], the “cleavage by β-Gal” value at β-Gal was “cleaved”. The survival rate entry in the test on HEK/lac Z cells (HEK/lac Z cells, 50 μM, after 24 hours) is on record as “did not drop at all”; in the test on HEK293 cells, “did not drop at all”. The “difference in survival rate between high-expression and low-expression cells” value with HEK/lac Z cells (HEK/lac Z vs HEK293, up to 50 μM, 24 hours) is “no significant difference”.
Consider `NCC(=O)N1CCC[C@H]1C(=O)Nc1ccccc1CF` [compound 2], for which, at DPP-IV, the “cleavage by DPP-IV” value is listed as “cleaved”. Moreover, in test [2], the “changes in cell viability between cells with high and low enzyme expression” value was “changes in the cell viability were observed”.
On to `N[C@@H](CCC(=O)Nc1ccccc1CF)C(=O)O` [compound 3], for which, in the test with GGT (100 μM compound, 10 U/mL GGT, 37° C., reaction product 2-aminobenzyl alcohol, FIG. 4), the “cleavage by GGT” value is on record as “cleaved”. Also, the “changes in cell viability between cells with high and low enzyme expression” value in [1] (SHIN3 (high GGT) vs H226 (low GGT), 1-50 μM, 24 hours, FIG. 7) is given as “changes in the cell viability were observed”. In addition, the cell type selectivity result in test [1] (SHIN3 vs H226, CCK-8, FIG. 7) is “high cell type selectivity”. In test [1] (concentration of 25 μM, FIG. 13), the “antitumor activity (CCK-8 assay)” value is reported as “showed an effect”. Further, in test [3], the “cell death (EthD-1 dead cell staining)” value is listed as “more cell death occurred in SHIN3 cells”. In test [4], the “selective cell damage in coculture (EthD-1 dead cell staining)” value is given as “selectively damages high-expression cells”. In addition, in test [5], the “cell death by flow cytometry (EthD-1 dead staining)” value was “selective cell death of SHIN3 cells”. Moreover, in the test on SHIN3 cells, the “tumors on the mesentery (macro and fluorescence images)” value is on record as “Tumors appear to be decreased overall”.

Values taken from patent US11655269B2, “Prodrug-type anticancer agent using cancer-specific enzymatic activity” (The University of Tokyo, priority 2018, dated 2023).
